# According to US4877795A, “4H-quinolizin-4-one compounds useful for the treatment of allergic bronchial asthma, allergic rhinitis atropic dermatitis and the like” (Kissei Pharmaceutical Co., Ltd., priority 1987, dated 1989):
# Columns and labels:
# IgE = test: Determination of Igs produced in in vitro culture: inhibition of IgE secreted by spleen cells (adoptive secondary immune response to DNP-As), ELISA; format: cell-based, BALB/c mice; conditions: 4 days culture; for inhibition at 5 µg/mL: 5.0 μg/ml; for inhibition at 0.25 µg/mL: 0.25 μg/ml
# Method: (§1) Determination of Igs produced in in vitro culture
# (§2) BALB/c mice were immunized intraperitoneally with 5 μg of DNP-As adsorbed in 4 mg aluminum hydroxide gel. 4 weeks after the immunization, the spleens were excised from the mice and 5×10^7 spleen cells were transferred intravenously into the recipient mice which had been exposed to 600 rad of X-ray irradiation. Immediately after cell transfer, the recipients were then immunized intraperitoneally with 5 μg of DNP-As adsorbed in 4 mg aluminum hydroxide gel to induce adoptive secondary immune response. Further 4 weeks after the immunization of recipients, the spleens were excised from them and the spleen cell suspensions 5×10^6 cells/ml were cultured with or without a compound to be tested in 96-well micro plates at 37° C. for 4 days. IgE and IgG secreted into the culture supernatant was each determined correspondingly by ELISA and the inhibitory effect was calculated according to the following equation. [formula]
# IgG = test: Determination of Igs produced in in vitro culture: inhibition of IgG secreted by spleen cells (adoptive secondary immune response to DNP-As), ELISA; format: cell-based, BALB/c mice; conditions: 4 days culture; for inhibition at 5 µg/mL: 5.0 μg/ml; for inhibition at 0.25 µg/mL: 0.25 μg/ml
# Method: as §1, §2
structure (smiles),measurement,setting,value
COC(=O)c1ccc(CNC(=O)c2c(SC)c(C#N)c(=O)n3ccccc23)cc1 [S-77],inhibition at 5 µg/mL,"IgE; Mus musculus, 96 h",34%
same,inhibition at 5 µg/mL,"IgG; Mus musculus, 96 h",10%
"CSc1c(C#N)c(=O)n2ccccc2c1C(=O)OCCOc1ccc(Cl)cc1 [S-53, 2'-(4-Chorophenoxy)ethyl 3-cyano-2-methylthio-4H-quinolizin-4-one-1-carboxylate]",inhibition at 0.25 µg/mL,"IgE; Mus musculus, 96 h",69%
same,inhibition at 0.25 µg/mL,"IgG; Mus musculus, 96 h",49%
"CSc1c(C#N)c(=O)n2ccccc2c1C(=O)OCc1cccc2ccccc12 [S-42, 1'-Naphthylmethyl 3-cyano-2-methylthio-4H-quinolizin-4-one-1-carboxylate]",inhibition at 1 µg/mL,"IgE; Mus musculus, 96 h, 1.0 μg/ml",75%
same,inhibition at 1 µg/mL,"IgG; Mus musculus, 96 h, 1.0 μg/ml",43%
"CSc1c(C#N)c(=O)n2ccccc2c1C(=O)OCCCCc1ccccc1 [S-49, 4'-Phenylbutyl 3-cyano-2-methylthio-4H-quinolizin-4-one-1-carboxylate]",inhibition at 1 µg/mL,"IgE; Mus musculus, 96 h, 1.0 μg/ml",80%
same,inhibition at 1 µg/mL,"IgG; Mus musculus, 96 h, 1.0 μg/ml",56%
"CSc1c(C#N)c(=O)n2ccccc2c1C(=O)Cc1cccc2ccccc12 [S-103, 3-Cyano-2-mehtylthio-1-(1-naphthylacetyl)-4H-quinolizin-4-one]",inhibition at 2.5 µg/mL,"IgE; Mus musculus, 96 h, 2.5 μg/ml",49%
same,inhibition at 2.5 µg/mL,"IgG; Mus musculus, 96 h, 2.5 μg/ml",15%
"CSc1c(C#N)c(=O)n2ccccc2c1C(=O)N1CCC2CCCCC21 (single isomer, unassigned) [S-85A, 3-Cyano-2-methylthio-1-(perhydroindol-1-yl-carbonyl)-4H-quinolizin-4-one]",inhibition at 5 µg/mL,"IgE; Mus musculus, 96 h",43%
same,inhibition at 5 µg/mL,"IgG; Mus musculus, 96 h",23%
"C=CCOC(=O)c1c(SC)c(C#N)c(=O)n2ccccc12 [S-5, 2'-Propenyl 3-cyano-2-methylthio-4H-quinolizin-4-one-1-carboxylate]",inhibition at 20 µg/mL,"IgE; Mus musculus, 96 h, 20.0 μg/ml",77%
same,inhibition at 20 µg/mL,"IgG; Mus musculus, 96 h, 20.0 μg/ml",47%
"CCOC(=O)c1c(SC(C)C)c(C#N)c(=O)n2ccccc12 [S-57, Ethyl 3-cyano-2-isopropylthio-4H-quinolizin-4-one-1-carboxylate]",inhibition at 5 µg/mL,"IgE; Mus musculus, 96 h",53%
same,inhibition at 5 µg/mL,"IgG; Mus musculus, 96 h",32%
"CSc1c(C#N)c(=O)n2ccccc2c1C(=O)OC1CCCC1 [S-12, Cyclopentyl 3-cyano-2-methylthio-4H-quinolizin-4-one-1-carboxylate]",inhibition at 5 µg/mL,"IgE; Mus musculus, 96 h",65%
same,inhibition at 5 µg/mL,"IgG; Mus musculus, 96 h",32%
"CSc1c(C#N)c(=O)n2ccccc2c1C(=O)OC1C2CC3CC(C2)CC1C3 (centres unmarked) [S-21, 2'-Adamantyl 3-cyano-2-methylthio-4H-quinolizin-4-one-1-carboxylate]",inhibition at 5 µg/mL,"IgE; Mus musculus, 96 h",70%
same,inhibition at 5 µg/mL,"IgG; Mus musculus, 96 h",47%
"CSc1c(C#N)c(=O)n2ccccc2c1C(=O)N1CCC(Cc2ccccc2)CC1 (single isomer, unassigned) [S-82A, 1-(4-Benzylpiperidinocarbonyl)-3-cyano-2-methylthio-4H-quinolizin-4-one]",inhibition at 1 µg/mL,"IgE; Mus musculus, 96 h, 1.0 μg/ml",43%
same,inhibition at 1 µg/mL,"IgG; Mus musculus, 96 h, 1.0 μg/ml",18%
"CSc1c(C#N)c(=O)n2ccccc2c1C(=O)Cc1ccc(C)c(C)c1 [S-101, 3-Cyano-1-(3,4-dimethylphenylacetyl)-2-methylthio-4H-quinolizin-4-one]",inhibition at 40 µg/mL,"IgE; Mus musculus, 96 h, 40.0 μg/ml",58%
same,inhibition at 40 µg/mL,"IgG; Mus musculus, 96 h, 40.0 μg/ml",13%
"CSc1c(C#N)c(=O)n2ccccc2c1C(=O)OC1CCCCC1C (centres unmarked) [S-17, 2'-Methylcyclohexyl 3-cyano-2-methylthio-4H-quinolizin-4-one-1-carboxylate]",inhibition at 0.25 µg/mL,"IgE; Mus musculus, 96 h",43%
same,inhibition at 0.25 µg/mL,"IgG; Mus musculus, 96 h",7%
"CSc1c(C#N)c(=O)n2ccccc2c1C(=O)CC1CCN(c2ccccc2)CC1 [S-109, 3-Cyano-2-methylthio-1-(1-phenyl-4-piperidylacetyl)-4-quinolizin-4-one]",Inhibition % of IgE,IgE; 1.0 μg/ml,77%
same,Inhibition % of IgG,IgG; 1.0 μg/ml,54%
"CSc1c(C#N)c(=O)n2ccccc2c1C(=O)OCc1ccccc1Cl [S-39, 2'-Chlorobenzyl 3-cyano-2-methylthio-4H-quinolizin-4-one-1-carboxylate]",inhibition at 1 µg/mL,"IgE; Mus musculus, 96 h, 1.0 μg/ml",65%
same,inhibition at 1 µg/mL,"IgG; Mus musculus, 96 h, 1.0 μg/ml",31%
"CSc1c(C#N)c(=O)n2ccccc2c1C(=O)Cc1ccccc1C [S-98, 3-Cyano-1-(2-methylphenylacetyl)-2-methylthio-4H-quinolizin-4-one]",inhibition at 10 µg/mL,"IgE; Mus musculus, 96 h, 10.0 μg/ml",38%
same,inhibition at 10 µg/mL,"IgG; Mus musculus, 96 h, 10.0 μg/ml",13%
